Measured values taken from patent publication US8541628B2, “Complex cationic lipids having quaternary nitrogens therein” (Vical Incorporated, priority 1995, dated 2013).
Entries after “also recorded” stand apart in the source; their conditions may differ.

Key:
[1] = tested on: C2C12 mouse myoblast muscle cells; test: In vitro transfection of C2C12 cells (pRSV lacZ, β-galactosidase expression; DMRIE as reference standard); format: cell-based; conditions: for Activity C2C12: cytofectin activity relative to DMRIE, comparison symbols, key not given
Protocol: (§1) Solutions of a DMRIE or GMU-DMRIE in chloroform were prepared on a weight to volume (w/v) basis. Aliquots of cationic lipid and neutral lipid (when used) were transferred aseptically to sterile vials in amounts calculated to provide the relative and absolute lipid concentrations desired upon reconstitution with 1 ml of aqueous vehicle. Bulk chloroform was removed with a stream of dry nitrogen, and the vials were treated with high vacuum overnight to remove any residual solvent.
(§2) Plasmid DNA at 5 mg/ml of phosphate buffered saline (PBS) as well as the dried, formulated cytofectin-neutral lipid mixture were suspended in OPTIMEM™ (Gibco BRL) and mixed together in 96 well plates at the desired mass/molar ratio as indicated in the Tables. The DNA-lipid complexes were added to the cells within 2 hours after mixing.
(§3) All cells were passaged 1:5 to 1:10 in 10% fetal bovine serum (FBS) and Dulbecco's Modified Eagles medium (DMEM). All cells were expanded through 10 doubling passages upon receipt and aliquots were stored frozen. Upon re-expansion, all cells were used for transfection studies before another 10 passages.
(§4) On day 0, 20,000 cells in 100 microliters 10% FEBS/90% DMEM were seeded into each well of 96-well culture plates (Nunc) and cultured overnight in a 5% CO2 incubator at 37° C. On Day 1, the medium was aspirated carefully without dislodging cells, and 100 microliters of GMU-DMRIE/pRSV lacZ/DOPE in serum-free OPTIMEM™ (Gibco BRL) was added. DMRIE was used as a reference standard. The lacZ gene encodes the enzyme β-galactosidase which can be assayed colorimetricaly. The cationic lipid:DOPE ratios varied for each well. After 4 hours of culture, 50 microliters 30% FBS/70% OPTIMEM™ was added to each well. On Day 2, each well received 100 microliters 10% FEBS/90% OPTIMEM™. On Day 3, the medium was removed and 50 microliters lysis buffer (0.1% Triton-X100 in 250 mM Tris, pH 8.0) was added and the plates were stored at […] for at least 20 hours.

COS7 monkey kidney cells = test: In vitro transfection of COS7 cells (pRSV lacZ, β-galactosidase expression; DMRIE as reference standard); format: cell-based; conditions: for Activity Cos7: cytofectin activity relative to DMRIE, comparison symbols, key not given
Protocol: as §1, §2, §3, §4

[2] = tested on: influenza nuclear protein (NP) antibody titers; format: in vivo, Balb/c mice; conditions: cytofectin:DOPE 1:1, pDNA-phosphate/cytofectin 4:1, serum at 6 weeks, FIG. 6; for activity in NP antibody assay compared with naked DNA alone: 10 μgr pDNA per animal, day 0 and 3 weeks
murine B16 tumor cells = test: Intraperitoneal tumor assay (CAT DNA, CAT activity in tumors); format: in vivo, C57/B16 mice; conditions: 0.5 mg CAT DNA i.p., 10:1 molar ratio of cytofectin:DNA, tumors two days later, FIG. 5; for CAT expression in tumor cells: control DNA alone
Protocol: Two hundred thousand murine B16 tumor cells in 500 μl RPMI were injected intraperitoneally into C57/B16 mice at day 0. At day 7-14, mice received intraperitoneal injections of 0.5 mg CAT DNA in 1.5 ml saline containing cytofectin at a 10:1 molar ratio of cytofectin:DNA. The cationic lipids used were DMRIE, GAP-DMRIE, GAP-DLRIE, and GMU-DLRIE. Two days later, tumors were collected, extracted and assayed for CAT activity as described in Example 7. The CAT activities observed with the cytofectin formulations is compared to a control receiving DNA alone in FIG. 5. […] CAT activity was greatest in cells transfected with DMRIE.

BF16F10 melanoma tumors = test: Subcutaneous melanoma tumor model (intratumoral cytofectin/CAT plasmid complex, CAT activity); format: in vivo, BALB/C mice; conditions: intratumoral injection; tumors collected after 48 hours; FIG. 7
Protocol: Tumors are prepared by injecting a suspension of tumor cells subcutaneously on the side of a mouse strain which is compatible with the specific tumor type. The tumors are periodically measured. Once they have reached a size suitable for injection, the tumor volume is approximated based on the measured diameter assuming a spherical tumor. A complex of the cytofectin to be evaluated with a plasmid encoding a reporter gene in a volume of saline equal to the volume of the tumor to be treated is then injected at a flow rate optimized for the particular tumor type. After an appropriate time, the tumors are collected, frozen, then ground up. The reporter gene product is subsequently extracted and the quantity which was expressed is determined using extraction and assay conditions appropriate for the particular gene product being used. A variety of tumor types may be evaluated using this general technique, and different reporter genes are more or less appropriate depending on the tumor type. A specific example of this assay involving melanoma tumors is provided in Example 14 below.
BF16F10 melanoma tumors are propagated in 90% RPMI 1640/10% Fetal Bovine Serum. The tumors are injected subcutaneously into the side of BALB/C mice in 75 μL of a suspension containing approximately 10^6 cells/mL tissue culture medium. When the tumors have reached 4.5 to 7 mm in diameter the volume of each individual tumor is calculated by measuring the diameter of the tumor and assuming a spherical tumor. For each individual tumor, a volume of the cytofectin/CAT plasmid complex in saline equivalent to the calculated volume of the tumor is injected into the tumor at a rate of 2 mL/min. After 48 hours, the tumors are collected, frozen, ground up, and extracted with 1.5 mL of extraction buffer as described in Example 3. CAT activity is quantitated as described below. […]

Compound	Activity C2C12 [1]	Activity Cos7 (COS7 monkey kidney cells)	activity in NP antibody assay compared with naked DNA alone [2]	further results
γ-aminopropyl-DMRIE, α-arabonosyl thiourea [Ara-TU-DMRIE]	<	≈	greater activity than naked DNA alone	–
γ-aminopropyl-DMRIE,α-glucosyl thiourea [Glc-TU-DMRIE]	≦	≧	greater activity than naked DNA alone	–
CCCCCCCCCCCCOCC(C[N+](C)(C)CCCNC(=O)NC)OCCCCCCCCCCCC (centres unmarked) [GMU-DLRIE]	–	–	–	CAT expression in tumor cells (murine B16 tumor cells): significant CAT expression
Hydroxypropyl DMRIE Methyl Carbamate [ΥMC]	≈	≈	–	–
CCCCCCCCCCCCCCOCC(C[N+](C)(C)CCCN)OCCCCCCCCCCCCCC (centres unmarked) [GAP-DMRIE]	–	–	–	CAT activity, cytofectins compared with one another (murine B16 tumor cells): significant activity; CAT expression in tumor cells (murine B16 tumor cells): significant CAT expression
CCCCCCCCCCCCOCC(C[N+](C)(CCCN)CCCN)OCCCCCCCCCCCC (centres unmarked) [BPA-DLRIE]	–	–	greater activity than naked DNA alone	activity in NP antibody assay, among the compounds tested [2]: particularly high activity
Serine-δ-DMRIE amide [δ-ser-DMRIE]	≦	≈	–	–
CCCCCCCCCCCCCCOCC(C[N+](C)(CCCN)CCCN)OCCCCCCCCCCCCCC (centres unmarked) [BPA-DMRIE]	–	–	greater activity than naked DNA alone	CAT activity in subcutaneous melanoma, among the compounds tested (BF16F10 melanoma tumors): particularly high activity; activity in NP antibody assay, among the compounds tested [2]: particularly high activity
CCCCCCCCCCCCOCC(C[N+](C)(C)CCCN)OCCCCCCCCCCCC (centres unmarked) [GAP-DLRIE]	–	–	–	CAT activity, cytofectins compared with one another (murine B16 tumor cells): nearly as effective as DMRIE; also recorded: significant activity; CAT expression in tumor cells (murine B16 tumor cells): significant CAT expression
DMRIE carboxylate (methionine-methyl ester) amide [DOx-Met-OMe]	<	–	–	–
CCCCCCCCCCCCCCOCC(C[N+](C)(C)CCNC(=O)NC)OCCCCCCCCCCCCCC.[Br-] (stereo not drawn) [BMU, β-aminoethyl-DMRIE,Methyl Urea]	≦	≧	greater activity than naked DNA alone	activity in NP antibody assay, among the compounds tested [2]: particularly high activity
CCCCCCCCCCCCCCOCC(C[N+](C)(C)CCCCNC(=O)NC)OCCCCCCCCCCCCCC.[Br-] (centres unmarked) [DMU, δ-aminobutyl DMRIE, Methyl Urea]	≧	–	–	–
CCCCCCCCCCCCCCOCC(C[N+](C)(C)CCO)OCCCCCCCCCCCCCC.[Br-] (racemic) [DMRIE, 1-propanaminium, N-(2-hydroxyethyl)-N,N-dimethyl-2,3-bis(tetradecyloxy)-bromide, (±)-, reference compound]	–	–	–	CAT activity, cytofectins compared with one another (murine B16 tumor cells): greatest; CAT expression in tumor cells (murine B16 tumor cells): significant CAT expression
pGlutamate-histidine-proline-γ-DMRIE amide [TRH-γ-DMRIE]	–	≈	–	–
CCCCCCCCCCCCCCOCC(C[N+](C)(CCCN)CCCCN)OCCCCCCCCCCCCCC (centres unmarked) [PABA-DMRIE]	–	–	greater activity than naked DNA alone	activity in NP antibody assay, among the compounds tested [2]: particularly high activity
CCCCCCCCCCCCCCOCC(C[N+](C)(C)CCCNC(N)=S)OCCCCCCCCCCCCCC (centres unmarked) [GTU-DMRIE, DMRIE-γ-thiourea]	–	–	–	CAT activity in subcutaneous melanoma, among the compounds tested (BF16F10 melanoma tumors): particularly high activity
CCCCCCCCCCCCCCOCC(C[N+](C)(C)CCCNC(=O)NC)OCCCCCCCCCCCCCC (centres unmarked) [GMU, γ-aminopropyl-DMRIE,Methyl Urea]	≈	≧	–	levels of total β-gal activity compared with DMRIE ([1]; C2C12 cells): significantly higher levels of total activity than DMRIE; Total β-gal expression ([1]; C2C12 cells, GMU-DMRIE alone (no DOPE)): significantly decreased; levels of β-gal activity compared with DMRIE (COS7 monkey kidney cells; COS7 cells): higher levels of activity than those achieved by DMRIE; Total β-gal expression (COS7 monkey kidney cells; COS7 cells, GMU-DMRIE alone (no DOPE)): significantly decreased; total expression of β-gal (COS7 monkey kidney cells; COS7 cells, GMU-DMRIE/DOPE ratio of 75:25): highly effective
DMRIE Methyl carbamate [βMC]	≈	≈	–	–
Hydroxybutyl DMRIE Methyl Carbamate [δMC]	≈	≈	–	–
γ-aminopropyl-DMRIE,α-galactosyl thiourea [Gal-TU-DMRIE]	≈	≧	greater activity than naked DNA alone	–
γ-aminopropyl-DMRIE, Arginine Methyl Ester Urea [Arg(OMe)-GU-DMRIE]	–	–	–	CAT activity in subcutaneous melanoma, among the compounds tested (BF16F10 melanoma tumors): particularly high activity
